Results as given in paper PMC4961704, “Synthesis and Biological Evaluation of Thiophene-Based Cannabinoid Receptor Type 2 Radiotracers for PET Imaging” (Frontiers in Neuroscience, 2016).
“Also recorded” adds a separate entry of the source. Where two headings read alike, the source gives them in different places.

Tests used:
[1] = tested on: CB2-positive mouse spleen tissue; experiment: In vitro autoradiography on mouse spleen tissue sections; assay type: binding, CD1 mouse; settings: 5 nM radiotracer; baseline vs blockade with 10 μM GW405833; n = 2
Procedure: (§1) Autoradiography was performed on rat/mouse spleen tissue. Sections were prepared in 20 μm thickness using a cryostat (Cryo-Star NX 50; Thermo Scientific). The tissue slices were adsorbed to SuperFrost Plus (Menzel) slides and stored at −20°C until use. After thawing on ice for 10 min, sections were pre-incubated in the assay buffer containing 50 mM TRIS, 5 mM MgCl2, 2.5 mM EDTA, and 0.5% BSA (pH 7.4). […] In order to test for specificity toward CB2, a solution containing both radiotracer and an excess of CB2 specific partial agonist GW405833 (10 μM) was prepared and added to the tissue. The tissue slices were washed twice with assay buffer (each 2 min) and twice with distilled water (each 5 s) on ice, air dried, and exposed to a phosphor imager plate for a period of 25 min. The plate was scanned using a BAS5000 reader (Fujifilm, Dielsdorf, CH).

[2] = tested on: CB2-positive rat spleen tissue; experiment: In vitro autoradiography on rat spleen tissue sections; assay type: binding, Wistar rat; settings: 5 nM radiotracer; baseline vs blockade with 10 μM GW405833; n = 2
Procedure: as §1

[3] = tested on: CB2-positive spleen; experiment: In vivo PET/CT of the spleen region after tail-vein injection; design: species or system Wistar rat
Procedure: Under baseline conditions, radiotracer accumulation was recorded in the region of the spleen in dynamic PET acquisition mode over 60 min (n = 2). During this whole time period rats were kept under anesthesia, body temperature and respiratory rate were constantly monitored. Under blockade conditions, 1.5 mg/kg GW405833 was injected shortly before radiotracer application in two of the four rats. Acquired PET data were reconstructed as user-defined time frames with a voxel size of 0.3875 × 0.3875 × 0.775 mm. For anatomical orientation, CT scans were acquired after each PET scan. Images were evaluated with PMOD v3.4 (PMOD Technologies Inc., Zurich, CH) software. Regions of interest (spleen, liver, and muscle) were drawn manually using the PMOD fusion tool. Time activity curves (TACs) for spleen, liver and muscle were expressed as standardized uptake values (SUV) which are the decay-corrected radioactivity per cm^3 divided by the injected radioactivity dose per gram of body weight.

[4] = molecular target: T1, hCB2 (Homo sapiens, UniProt P34972); design: method as in earlier work; settings: known ligands, entry 1–3; ref Showalter et al., 1996; Lan et al., 1999; Valenzano et al., 2005; cited from earlier work
T1 construct: purchased PerkinElmer; host or cells: CHO-K1 cells stably transfected
T1 sequence (P34972 whole entry): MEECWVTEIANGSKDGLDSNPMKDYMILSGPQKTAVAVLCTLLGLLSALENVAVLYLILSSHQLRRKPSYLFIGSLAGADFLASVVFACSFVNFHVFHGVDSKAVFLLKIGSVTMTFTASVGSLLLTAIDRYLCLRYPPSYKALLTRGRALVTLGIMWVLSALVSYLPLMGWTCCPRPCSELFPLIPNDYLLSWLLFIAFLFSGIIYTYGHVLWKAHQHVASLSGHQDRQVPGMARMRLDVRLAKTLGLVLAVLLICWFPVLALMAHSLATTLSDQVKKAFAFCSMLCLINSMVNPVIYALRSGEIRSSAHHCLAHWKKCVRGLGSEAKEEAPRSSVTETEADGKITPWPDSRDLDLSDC

[5] = molecular target: T2, hCB1 (Homo sapiens, UniProt P21554); design: method as in earlier work; settings: known ligands, entry 1–3; ref Showalter et al., 1996; Lan et al., 1999; Valenzano et al., 2005; cited from earlier work
T2 construct: purchased PerkinElmer; host or cells: CHO-K1 cells stably transfected
T2 sequence (P21554 whole entry): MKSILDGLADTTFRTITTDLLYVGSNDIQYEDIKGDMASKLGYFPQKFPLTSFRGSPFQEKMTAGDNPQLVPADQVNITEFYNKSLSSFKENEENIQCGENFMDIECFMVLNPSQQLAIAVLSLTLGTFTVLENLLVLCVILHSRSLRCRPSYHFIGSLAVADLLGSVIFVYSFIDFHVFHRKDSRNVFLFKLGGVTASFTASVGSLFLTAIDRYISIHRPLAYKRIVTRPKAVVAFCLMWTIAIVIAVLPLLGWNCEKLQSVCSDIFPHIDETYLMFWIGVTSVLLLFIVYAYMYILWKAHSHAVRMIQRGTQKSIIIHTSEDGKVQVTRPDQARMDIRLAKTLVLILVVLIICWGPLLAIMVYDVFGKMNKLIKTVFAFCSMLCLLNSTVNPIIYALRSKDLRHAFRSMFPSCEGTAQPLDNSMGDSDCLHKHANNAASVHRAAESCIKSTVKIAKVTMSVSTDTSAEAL

[6] = molecular target: T1, hCB2; experiment: Competitive in vitro binding assay with [3H]CP-55,940, membranes of CHO-K1 cells stably transfected with hCB2; settings: displacement of [3H]CP-55,940 (1.4 nM), 30°C, 90 min; three independent experiments in triplicate; Cheng-Prusoff
Procedure: (§2) A dilution series ranging from 1 pM to 1 mM in assay buffer (50 mM TRIS, 1 mM EDTA, 3 mM MgCl2 and 0.05% bovine serum albumin, pH adjusted to 7.4) was prepared for each ligand to be tested. […] The samples were incubated at 30°C for 90 min and subsequently diluted with ice cold assay buffer (3 mL) in order to be vacuum-filtered through Whatman GF/C filters (pre-treated with aq. polyethylenimine, 0.05%). Each sample was washed twice with ice cold assay buffer (3 mL) and filtered again. After addition of scintillation cocktail (Ultima Gold, Perkin Elmer), radioactivity was measured using a Beckman LS 6500 Liquid Scintillation Counter. IC50 mean values were calculated after performing three independent experiments, each as triplicate.
(§3) Binding affinity studies were performed using membranes stably transfected with human CB1 and CB2, respectively.

[7] = molecular target: T2, hCB1; experiment: Competitive in vitro binding assay with [3H]CP-55,940, membranes of CHO-K1 cells stably transfected with hCB1; settings: displacement of [3H]CP-55,940 (1.4 nM), 30°C, 90 min; three independent experiments in triplicate; Cheng-Prusoff
Procedure: as §2, §3

Question: Which results are given for `[11CH3]OC(=O)c1c(NC(=O)C23CC4CC(CC(O)(C4)C2)C3)sc2c1CCCC2` [[^11C]AAT-015]?
Answer: specificity of binding to mouse spleen tissue (autoradiography) [1]: high unspecific binding; specificity of binding to rat spleen tissue (autoradiography) [2]: high unspecific binding; spleen uptake of radiotracer (PET) ([3]; baseline, 10–15 MBq i.v., 0–60 min post injection): no accumulation; also recorded: low uptake; spleen uptake, TACs baseline vs blockade (PET) ([3]; blockade with 1.5 mg/kg GW405833 shortly before tracer, 60 min): no difference

Question: Which “specificity of binding to mouse spleen tissue (autoradiography)” value [1] does the source give for `CCCc1c(C)sc(NC(=O)C23CC4CC(CC(C4)C2)C3)c1C(=O)O[11CH3]` [[^11C]AAT-778] here?
Answer: No blocking effect; also recorded: high unspecific binding

Question: And the “specificity of binding to rat spleen tissue (autoradiography)” value [2]?
Answer: No blocking effect; also recorded: high unspecific binding

Question: What does the source list for `COc1ccc2c(c1)c(CCN1CCOCC1)c(C)n2C(=O)c1cccc(Cl)c1Cl` [GW405833]?
Answer: Ki [4]: 3.9 ± 1.6 nM; Ki [5]: 4.77 ± 1.68 µM

Question: For `CCCc1c(C)sc(NC(=O)C23CC4CC(CC(C4)C2)C3)c1C(=O)OC` [AAT-778, Methyl 2-(adamantane-1-carboxamido)-5-methyl-4-propylthiophene-3-carboxylate], which Ki [6] is on record?
Answer: 4.3 ± 0.7 nM

Question: What about the Ki [7] of the same compound?
Answer: 1100 ± 100 nM
